Patent US6399658B1, “Composition containing ascorbic acid” (Sumitomo Pharmaceuticals Co., Ltd., priority 1996, dated 2002)

Assays:
3T3-L1 adipocytes = assay: Lactic acid increase induced by metformin hydrochloride in 3T3-L1 adipocytes; type: cell-based, mouse; conditions: for Lactic acid levels: additive 40 mM together with metformin hydrochloride 10 mM, medium after 24 hr, 30% O2/5% CO2
Description: Then the cells were differentiated to adipocytes according to the following procedure. […] The medium was changed with the same fresh medium every 48 hr until experiments. Lactic acid levels were measured by enzyme assay on lactate dehydrogenase and glutamate pyruvate transaminase, using Lactate Test BMY (Boehringer Mannheim). To the plate of the differentiated 3T3-L1 cells were added metoformin hydrochloride (10 mM) and various acids (40 mM), and the differentiated 3T3-L1 cells were incubated under 30% O2/5% CO2 condition for 24 hr. Lactic acid levels in the medium were measured.

KKAy mice [1] = assay: Reduction of blood sugar levels in diabetic model animals (KKAy mice), metformin hydrochloride + L-ascorbic acid study; type: in vivo, mouse; conditions: p.o. twice a day for 5 days; for Blood glucose levels: 2 hr after last administration, metformin hydrochloride 600, L-ascorbic acid 2900, metformin hydrochloride 600 + L-ascorbic acid 2900 mg/kg/dose
Description: . The experimental schedule was as follows.

KKAy mice [2] = assay: Reduction of blood sugar levels in diabetic model animals (KKAy mice), metformin L-ascorbate study; conditions: p.o. twice a day for 5 days; for Blood glucose levels: 2 hr after last administration, metformin hydrochloride 600, L-ascorbic acid 800, metformin L-ascorbate 1400 mg/kg/dose
[3] = tested on: rat hepatocytes primary culture; assay: Inhibition of gluconeogenesis in rat hepatocytes primary culture; type: cell-based; conditions: 6 hr; for Glucose levels in the medium: Hanks solution containing 0.1% fructose
Description: Hepatocytes were isolated from a male Wistar rat. The isolated hepatocytes were grown on gelatin coated 24-well plate (3×10^5 cells/well) in Williams E medium containing 10 nM dexamethasone and 5% fetal calf serum under the 37° C., 5% CO2/95% air condition for 24 hr.
After the plates of hepatocytes primary culture were washed by phosphate buffer twice, the medium were changed to Hanks solution containing 0.1% fructose (depletion glucose). […] Glucose levels (mg/dL) in the medium were measured.

5/6 nephrectomy rats = conditions: p.o. twice a day for 4 days
Description: After 5-week old Wistar rats were acclimatized for 7 to 10 days, 2/3 of left kidney were removed. After the rats were bred and observed for 7 days, all right kidney was removed. After the rats were bred and observed for 7 to 10 days, the rats were used for experiments.
The experimental schedule was as follows. 5/6 Nephrectomy rats were divided into four groups according to their weight, blood urea nitrogen levels and serum creatinine levels after preliminary breeding and observation after purchase. […] The volume of administrated liquids was 5 mL/kg/dose. […] Blood was collected from tail vein under ether anesthetics at the day 5, and the blood lactic acid levels were measured.

Row | SMILES | Lactic acid levels (3T3-L1 adipocytes) [mg/dL] | Blood glucose levels (KKAy mice [1]) [mg/dL] | Blood glucose levels (KKAy mice [2]) [mg/dL] | Effect for reducing blood glucose levels (in words) (KKAy mice [2]) | further results
1 | O=C(O)CC(O)(CC(=O)O)C(=O)O [Citric acid, citric acid] | 155 |  |  |  | 
2 | O=C1O[C@H]([C@@H](O)CO)C(O)=C1O [L-ascorbic acid] | 73 | 367.0 ± 45.3 | 392.8 ± 45.3 |  | Glucose levels in the medium ([3]; 1 mM (each 1 mM for the combination)): 14.6 mg/dL; Glucose levels in the medium ([3]; 3 mM (each 3 mM for the combination)): 10.6 mg/dL; Effect on gluconeogenesis (in words) ([3]; 1 or 3 mM): Gluconeogenesis was reduced; Effect on lactic acid increase induced by metformin hydrochloride (in words) (3T3-L1 adipocytes; 40 mM with metformin hydrochloride 10 mM, 24 hr): prevented lactic acid increase induced by metformin hydrochloride
3 | O=C(O)CC(O)C(=O)O (stereo not shown) [Malic acid, malic acid] | 143 |  |  |  | 
4 | CN(C)C(=N)N=C(N)N.O=C1OC(C(O)CO)C(O)=C1O [Metformin L-ascorbate] |  |  | 270.3 ± 78.2 | Significant effects for reducing blood glucose levels | Blood lactic acid levels (5/6 nephrectomy rats; blood at day 5, metformin hydrochloride 250 mg/kg/dose, metformin L-ascorbate 461 mg/kg/dose, metformin hydrochloride 250 + L-ascorbic acid 266 mg/kg/dose (same moles of metformin)): 40.2 ± 6.2 (†)(*) mg/dL; Blood lactic acid levels compared with metformin hydrochloride group (in words) (5/6 nephrectomy rats; day 5): significantly lower than metformin hydrochloride group; Blood lactic acid levels compared with vehicle group (in words) (5/6 nephrectomy rats; day 5): significantly higher than vehicle group
5 | CN(C)C(=N)NC(=N)N.Cl [Metformin hydrochloride, 1,1-dimethylbiguanide hydrochloride] |  | 286.5 ± 63.1 | 247.6 ± 30.2 | Significant effects for reducing blood glucose levels | Effect for reducing blood glucose levels (in words) (KKAy mice [1]): Significant effects for reducing blood glucose levels
6 | O=C(O)CCC(=O)O [Succinic acid, succinic acid] | 145 |  |  |  | 
